Several values for one entry are separate records, joined by “and”; a condition that tells them apart may be missing. Identical values can stand only once.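 Tested at 5 concentrations; 48 h exposure; 96-well plates; endpoints linearly interpolated, else capped at highest concentration. GI50: concentration for 50% inhibition of growth. TGI is the concentration that stops growth completely.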
Legend:
Test in all cases: inhibition of tumour cell growth, NCI panel, 48 h
[1] = system: 786-0 renal
[2] = system: MDA-MB-231 breast
[3] = system: OVCAR-3 ovarian
[4] = system: OVCAR-4 ovarian
[5] = system: RPMI-8226 leukemia
[6] = system: SF-268 CNS
[7] = system: MOLT-4 leukemia
[8] = system: SR leukemia

Structure (SMILES) | TGI [1] [µM] | TGI [2] | TGI [3] [µM] | TGI [4] [µM] | TGI [5] [µM] | TGI [6] | GI50 [1] [µM] | GI50 [2] | GI50 [7] [µM] | TGI [7] [µM] | GI50 [3] [µM] | GI50 [4] [µM] | GI50 [5] [µM] | GI50 [6] | GI50 [8] [µM] | TGI [8] [µM]
OCCN(CO)CO | > 100 | > 100 µM | > 100 | > 100 | > 100 | > 100 µM |  |  |  |  |  |  |  |  |  | 
COc1ccc(/C=C/C(=O)c2cc3c(N)c(C(=O)Nc4ccc(OC)cc4)sc3nc2C)cc1 | > 50 | 22 µM | 1.96 | > 50 | > 34 | > 50 µM | 0.353 | 1.28 µM | 0.697 | > 50 | 0.0276 | 0.324 | 0.348 | 2.02 µM | 0.889 | > 50
Nc1ncc2ncn(C3CCC(CO)O3)c2n1 (stereo not drawn) | > 100 | > 100 µM | > 100 | > 100 | > 100 | > 100 µM |  |  |  | > 100 |  |  |  |  |  | > 100
CSC1=Nc2c(c(C)c(-c3ccccc3)n2COC(CO)CO)C2=NC(=O)CC(C)N12 (stereo not drawn) | > 100 | > 100 µM | > 100 | > 100 | > 100 | > 100 µM | > 100 | > 100 µM | > 100 | > 100 | > 100 | > 100 | > 100 | > 100 µM | > 100 | > 100
C[As](C)SC1OCC(O)C(O)C1O (stereo not drawn) | 0.545 | 0.63 µM | 0.412 | 7.63 | 0.604 | 2.88 µM | 0.0708 | 0.224 µM | 0.0825 | 0.395 | 0.081 | 1.09 | 0.0537 | 0.492 µM | 0.0255 | 0.0849
COc1cc2cc(Oc3cccc(NC(=O)Nc4cc(C(F)(F)F)cc(C(F)(F)F)c4)c3)c(C)nc2cc1OC | 3.09 | 2.49 µM | 1.7 | 4.44 | 5.51 | 3.68 µM | 1.61 | 1.08 µM | 1.13 | 4.04 | 0.488 | 1.22 | 0.406 | 1.62 µM | 1.62 | 5.97
CCOC(=O)c1c(CN2CCN(C)CC2)nc2ccc(Cl)cc2c1-c1ccccc1 | 18.8 | 21.2 µM | 19.6 | 17.4 | 12.7 | 23.5 µM | 7.05 | 7.16 µM | 2.92 | 12.9 | 6.5 | 4.98 | 2.98 | 10.2 µM | 1.93 | 4.78
O=CN1N=C(c2cccc(Nc3ccnc4cc(Cl)ccc34)c2)CC1c1ccc(Cl)cc1 (stereo not drawn) | > 100 | > 100 µM | 7.71 | > 100 | > 100 | > 100 µM | 4.73 | 2.12 µM | 1.92 | 80.3 | 1.2 | 4.13 | 2.45 | 4.37 µM | 0.367 | 2.13
O=c1cccc(Cl)[nH]1 | > 100 | > 100 µM | > 100 | > 100 | > 100 | > 100 µM |  |  |  | > 100 |  |  |  |  |  | > 100
CC1(C)N=C(N)N=C(N)N1c1cccc(CCc2ccccc2)c1 | > 100 | > 100 µM | 24.9 | 79.5 | > 58.6 | 57.5 µM | 0.799 | 4.27 µM | 0.599 | > 89.2 | 0.44 | 0.528 | 1.63 | 0.34 µM | 0.282 | > 64.3
Nn1c(-c2ccc(Cl)cc2)nc2c(-c3ccc(Cl)cc3)nc3ccc(Cl)cc3c2c1=O | 54.3 | 62.5 µM | 8.68 | 15.1 | 26.3 | 72.3 µM | 16.4 | 14.1 µM | 4.67 | > 100 | 2.7 | 3.55 | 4.14 | 5.18 µM | 4.08 | 20.2
COc1ccc(-c2csc(Nc3cccc(-c4csc(C)n4)c3)n2)cc1 | > 34.8 | 4.52 µM | > 10.8 |  | > 50 | > 50 µM | 2.14 | 0.824 µM | 0.287 | 7.11 | 0.489 |  | 2.52 | 2.48 µM | 0.0878 | 0.27
Clc1ccc(CN2CCCN(Cc3ccc(Cl)cc3)C2c2cc3ccccc3c3ccccc23)cc1 | > 100 | > 100 µM | > 100 | > 100 | > 100 | > 100 µM |  |  |  | > 100 |  |  |  |  |  | > 100
CCCCCCCCCCCCCCCC[n+]1ccccc1 | 1.91 | 1.74 µM and 2.7 µM | 1.5 | 3.29 |  | 1.71 µM and 2.57 µM | 0.548 | 0.44 µM and 0.805 µM |  |  | 0.366 | 0.57 |  | 0.452 µM and 0.861 µM |  | 
CCn1c(-c2nonc2N)nc2cnc(Oc3cccc(NC(=O)c4ccc(N(C)C)cc4)c3)cc21 | > 25 | > 25 µM | > 25 | > 25 | > 25 | > 25 µM | 21.6 | > 17 µM | 13.6 | > 25 | > 25 | > 25 | > 25 | 2.48 µM |  | 
COc1cc(-c2nn(-c3cccc(NC(=O)CCNc4ccc(N5CCOCC5)cc4)c3)cc2-c2ccncc2)ccc1Cl | 34.7 | 7.18 µM | 8.55 | 16.6 |  | > 100 µM | 2.87 | 2.05 µM | 1.6 | 6.98 | 2.45 | 2.6 |  | 4.42 µM | 2.13 | 9.09
COc1cc(-c2nn(-c3cccc(NC(=O)CCN4CCN(c5ccccc5)CC4)c3)cc2-c2ccncc2)ccc1Cl | 4.23 | 7.91 µM | 9.73 | > 100 |  | > 100 µM | 1.83 | 2.28 µM | 2.89 | > 100 | 2.68 | 3.03 |  | 3.56 µM |  | 
COc1ccc(C)cc1NC(=S)C#N | > 100 | > 100 µM | > 100 |  | > 100 | > 100 µM |  |  |  |  |  |  |  |  |  | 
Cn1cnnc1[S-].[Au+].c1ccc([PH+](c2ccccc2)c2ccccc2)cc1 | 3.15 | 3.08 µM | 3.18 |  | 5.39 | 3.44 µM | 1.72 | 1.67 µM |  |  | 1.79 |  | 1.69 | 1.7 µM |  | 
C=C1CC[C@H]2C(C)=CC[C@H]3C(=C)C(=O)O[C@@H]3[C@@H]12 | > 100 | > 100 µM |  | > 100 |  |  |  |  |  | > 100 |  |  |  |  |  | > 100
CC(C)OP(=O)(O)c1ncc(-c2ccc(C(F)(F)F)cc2)c(NC2CCCCCC2)n1 | > 100 | > 100 µM | > 100 | > 100 | > 100 | > 100 µM | > 100 | > 100 µM | > 100 | > 100 | 87 | 61.2 | 20.9 | > 100 µM |  | 
OCC(O)C(O)C(O)C(O)c1nnc2c(-c3ccccc3)nc3ccccc3n12 (stereo not drawn) | > 100 | > 100 µM | > 100 | 96.3 | > 100 | > 100 µM | > 100 | 32.8 µM |  |  | > 100 | 16 | 67.2 | > 100 µM |  | 
CCOC(=O)c1c(NC(=O)c2ccc(Cl)cc2)sc2c(CN(C)C)c(O)ccc12 | 20.7 | 34.5 µM | > 100 | 71.4 |  | 48.8 µM | 5.54 | 6.53 µM | 4.11 | > 100 | 16.2 | 9.85 |  | 7.63 µM | 2.19 | 4.82
Cc1cc(S(N)(=O)=O)c(S/C(=N\NS(=O)(=O)c2ccccc2)c2ccc(Cl)cc2)cc1Cl | > 100 | > 100 µM | > 100 | > 100 |  | > 100 µM | > 100 | > 100 µM | 34.4 | > 100 | 47.6 | > 100 |  | > 100 µM | 49.2 | > 100
O=NNc1ccc(S(=O)(=O)c2ccc3ccccc3c2)cn1 | > 100 | > 100 µM | > 100 | > 100 |  | > 100 µM |  |  |  |  |  |  |  |  |  | > 100
O=[N+]([O-])/C=C/c1ccc(Cl)cc1[N+](=O)[O-] | 4.62 | 6.46 µM |  | 15 |  | > 100 µM | 2.42 | 2.33 µM | 3.09 | 12.6 |  | 4.36 |  | 3.34 µM | 1.68 | > 100
Nc1ccccc1C#Cc1ccccc1C#Cc1cccs1 | 31 | 28.2 µM | 26.4 | > 100 | 40.6 | 42.8 µM | 16.3 | 11.8 µM | 32.4 | > 100 | 13.1 | 31 | 14.1 | 20.4 µM |  | 

— PubChem BioAssay (NCI)
